Source: US6984649B1, “Pyridine derivatives” (Bayer Aktiengesellschaft, priority 2000, dated 2006)
Counter-ions that a name gives are not always drawn.

target: T1, human IKK-β (Homo sapiens, UniProt O14920); experiment: IKK-β kinase inhibitory assay; format: biochemical; conditions: compounds as yielded by solid phase synthesis, purity about 40 to 90%, read-out: In vitro activity grade (In vitro IC50)
T1 construct: A cDNA fragment encoding human IKK-β open reading frame was generated by PCR; His tag (from pcDNA3.1/His C); made in house; host or cells: Sf21 insect cells (baculovirus); substrate made in E. coli
T1 sequence (O14920 1-756): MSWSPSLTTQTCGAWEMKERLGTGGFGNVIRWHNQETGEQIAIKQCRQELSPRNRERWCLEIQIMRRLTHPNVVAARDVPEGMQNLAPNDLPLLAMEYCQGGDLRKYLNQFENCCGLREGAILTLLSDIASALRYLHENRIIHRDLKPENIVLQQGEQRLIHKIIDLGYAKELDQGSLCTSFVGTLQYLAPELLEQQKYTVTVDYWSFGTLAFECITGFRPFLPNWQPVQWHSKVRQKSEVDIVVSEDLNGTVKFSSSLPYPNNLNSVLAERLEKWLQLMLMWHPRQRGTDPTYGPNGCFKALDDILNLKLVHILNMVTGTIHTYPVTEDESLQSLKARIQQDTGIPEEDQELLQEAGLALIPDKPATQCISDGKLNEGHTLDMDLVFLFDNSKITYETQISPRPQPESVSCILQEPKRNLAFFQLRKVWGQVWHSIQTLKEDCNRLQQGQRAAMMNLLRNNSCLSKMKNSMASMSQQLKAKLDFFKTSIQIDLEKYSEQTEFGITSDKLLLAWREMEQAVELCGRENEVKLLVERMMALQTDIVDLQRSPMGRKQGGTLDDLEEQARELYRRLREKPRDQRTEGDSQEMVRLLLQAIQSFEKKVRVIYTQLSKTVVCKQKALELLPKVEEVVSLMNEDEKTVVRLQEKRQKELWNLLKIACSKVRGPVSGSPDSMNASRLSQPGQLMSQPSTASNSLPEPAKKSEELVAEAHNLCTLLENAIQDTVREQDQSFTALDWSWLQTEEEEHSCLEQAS
Excerpt: [IKK-β Kinase Inhibitory Assay]
(1) Preparation of IKK-β Kinase Protein.
• A cDNA fragment encoding human IKK-β open reading frame was generated by PCR with the use of a pair of primers designed from the published sequence (Woronicz J D et al. (1997) Science 278, 866-869). A template was obtained from Quickclone cDNA (Clontech) using Elongase™ Amplification kit (Life Technologies). The DNA fragments generated by PCR were gel-purified and subcloned into pBluescript. The cDNA fragment cloned in pBluescript was inserted into pcDNA3.1/His C KpnI/NotI, and transferred into pVL1393 SmaI/XbaI (Pharmingen) to construct a baculovirus transfer vector. Then the vector, together with the linearized baculovirus (BaculoGold™, Pharmingen) was used to transfect Sf21 cells (Invitrogen, San Diego, Calif.). Generated recombinant baculovirus was cloned and amplified in Sf21 cells, grown in TNM-FH insect cell medium (Life Technologies, Inc.) supplemented with 10% FCS, […] Gentamycin, 0.1% Pluronic F-68 (Life Technologies, Inc.) as suspension culture (200 ml in 1 L Erlenmeyer flask; 27° C.; 130 rpm). Sf21 cells were infected with this amplified virus with a multiplicity of infection of 5 following standard protocols (Crossen R, Gruenwald S (1997) Baculovirus Expression Vector System Instruction Manual, Pharmingen Corporation) and harvested 48 hrs later. The cells were lysed to obtain the produced chimeric protein of IKK-β kinase fused by histidine (His-tagged IKK-beta). (2) The Preparation of Purified GST-IκBα Fusion Proteins • An expression vector containing the nucleotide sequence encoding fusion protein of GST with amino acid residues 1 to 54 of IκBα under the control of an IPTG-inducible promoter was constructed. The expression vector was introduced in E. coli and the transformant was cultured and lysed to obtain a GST-IκBα fusion protein. Then the resulting GST-IκBα fusion protein was purified and biotinated for kinase assay. (3) The Measurement of IKK-β Kinase Activity • The 96-well format kinase assay of IKK-β were performed to test the inhibitory activity of the compounds of the present invention. First, 5 μl of a test compound was put in the presence of 2.5% dimethyl sulfoxide (DMSO) in each well in a U-bottomed 96-well plate (Falcon). For control wells of background (BG) and total phosphorylation (TP), 5 μl of 2.5% DMSO was put. Recombinant IKK-β (final 0.6 μg/ml) and bio-GST-IκBα (1-54) (final 0.2 μM) were diluted in 25 μl of 2×kinase buffer β (40 mM Tris-HCl, pH 7.6, 40 mM MgCl2, 40 mM β-glycerophosphate, 40 mM p-nitrophenylphosphate, 2 mM EDTA, 40 mM creatine phosphate, 2 mM DTT, 2 mM Na3VO4, 0.2 mg/ml BSA and 0.8 mM phenylmethylsulfonyl fluoride) and transferred to the 96-well plate. Bio-GST-IκBα (1-54) in 25 μl of 2×kinase buffer β without IKK-β was transferred to BG wells. Then 20 μl of 12.5 μM ATP, 62.5 μCi/ml [γ-^33P] ATP (Amersham Pharmacia Biotech) was added and the resulting mixture was incubated for 2 hrs at room temperature. The kinase reactions were terminated by the addition of 150 μl of termination buffer (100 mM EDTA, 1 mg/ml BSA, 0.2 mg NaN3). One hundred and fifty μl of the sample were transferred to a streptavidin-coated, white MTP (Steffens Biotechniche Analysen GmbH #08114E14.FWD) to capture the biotinylated substrates. After 1 hr of incubation, non-bound radioactivity was eliminated by washing the wells five times with 300 μl of washing buffer including 0.9% NaCl and 0.1% (w/v) Tween-20 with the use of a MW-96 plate washer (BioTec). The bound radioactivity was determined after the addition of 170 μl MicroScint-PS scintillation cocktail (Packard) using a TopCount scintillation counter. [Syk Tyrosine Kinase Inhibitory Assay for Selectivity] (1) Preparation of Syk Protein • A cDNA fragment encoding human Syk openreading frame was cloned from total RNA of human Burkitt's lymphoma B cell lines, Raji (American Type Culture Collection), with the use of RT-PCR method.

SMILES	IC50
CNC(=O)c1c(C2CCCNC2)cc(-c2ccccc2O)nc1N (centres unmarked) [Example 8-2, 2-amino-6-(2-hydroxyphenyl)-N-methyl-4-(3-piperidinyl)nicotinamide hydrochloride]	500 to 2000 nM
Nc1nc(-c2ccccc2O)cc(C2CCCNC2)c1C(=O)O (centres unmarked) [Example 9-2, 2-amino-6-(2-hydroxyphenyl)-4-(3-piperidinyl)nicotinic acid hydrochloride]	< 500 nM
Cn1c(=O)[nH]c2nc(-c3ccccc3O)cc(C3CCCNC3)c2c1=O (centres unmarked) [Example 10-1, 7-(2-hydroxy-phenyl)-3-methyl-5-piperidin-3-yl-1H-pyrido[2,3-d]pyrimidine-2,4-dione hydrochloride]	< 500 nM
Nc1nc(-c2ncccc2O)cc(C2CCCNC2)c1CO (centres unmarked) [Example 11-3, 6′-amino-5′-(hydroxymethyl)-4′-3-piperidinyl)-2,2′-bipyridin-3-ol hydrochloride]	< 500 nM
Nc1nc(-c2ccccc2O)cc(C2=CCCNC2)c1CO [Example 11-4, 2-[6′-amino-5′-(hydroxymethyl)-1,2,5,6-tetrahydro-3,4′-bipyridin-2′-yl]phenol hydrochloride]	< 500 nM
Nc1nc(-c2c(O)cccc2OCC2CC2)cc(C2CCCNC2)c1CO (centres unmarked) [Example 12-1, 2-[6-amino-5-(hydroxymethyl)-4-(3-piperidinyl)-2-pyridinyl]-3-(cyclopropylmethoxy)phenol hydrochloride]	< 500 nM
COCc1c(C2CCCNC2)cc(-c2ccccc2O)nc1N (centres unmarked) [Example 13-1, 2-[6-amino-5-(methoxymethyl)-4-(3-piperidinyl)-2-pyridinyl]phenol hydrochloride]	< 500 nM
CC(O)c1c(C2CCCNC2)cc(-c2ccccc2O)nc1N (centres unmarked) [Example 15-1, 2-[6-amino-5-(1-hydroxyethyl)-4-(3-piperidinyl)-2-pyridinyl]phenol hydrochloride]	< 500 nM
Nc1nc(-c2ccccc2O)cc(C2CCCNC2)c1C(O)c1ccccc1 (centres unmarked) [Example 15-2, 2-[6-amino-5-[hydroxy(phenyl)methyl]-4-(3-piperidinyl)-2-pyridinyl]phenol hydrochloride]	< 500 nM
CC(=O)c1c(C2CCCNC2)cc(-c2ccccc2O)nc1N (centres unmarked) [Example 15-3, 1-[2-amino-6-(2-hydroxyphenyl)4-(3-piperidinyl)-3-pyridinyl]ethanone hydrochloride]	< 500 nM
Oc1ccccc1-c1cc(C2CCCNC2)c2cn[nH]c2n1 (centres unmarked) [Example 16-1, 2-(4-Piperidin-3-yl-1H-pyrazolo[3,4-b]pyridin-6-yl)-phenol hydrochloride]	500 to 2000 nM
Oc1cccc(OCC2CC2)c1-c1cc(C2CCCNC2)c2c(n1)NCOC2 (centres unmarked) [Example 17-1, 3-(cyclopropylmethoxy)-2-[5-(3-piperidinyl)-1,4-dihydro-2H-pyrido[2,3-d][1,3]oxazin-7-yl]-phenol hydrochloride]	< 500 nM

The next lines start with the values.

IC50	SMILES
< 500 nM	CNC(=O)c1c(C2CCCNC2)cc(-c2c(O)cccc2OCC2CC2)nc1N (centres unmarked) [Example 8-3, 2-amino-6-[2-(cyclopropylmethoxy)-6-hydroxyphenyl]-N-methyl-4-(3-piperidinyl)nicotinamide hydrochloride]
< 500 nM	CC(C)(C)OC(=O)c1c(C2CCCNC2)cc(-c2ccccc2O)nc1N (centres unmarked) [Example 9-1, tert-butyl 2-amino-6-(2-hydroxyphenyl)-4-(3-piperidinyl)nicotinate hydrochloride]
< 500 nM	Nc1nc(-c2c(O)cccc2OCC2CC2)cc(C2CCCNC2)c1C(=O)O (centres unmarked) [Example 9-3, 2-amino-6-[2-(cyclopropylmethoxy)-6-hydroxyphenyl]-4-(3-piperidinyl)nicotinic acid hydrochloride]
< 500 nM	Nc1nc(-c2ccccc2O)cc(C2CCCNC2)c1CO (centres unmarked) [Example 11-1, 2-[6-amino-5-(hydroxymethyl)-4-(3-piperidinyl)-2-pyridinyl]phenol hydrochloride]
< 500 nM	Nc1nc(-c2c(O)cccc2F)cc(C2CCCNC2)c1CO (centres unmarked) [Example 11-2, 2-[6-amino-5-(hydroxymethyl)-4-(3-piperidinyl)-2-pyridinyl]-3-fluorophenol hydrochloride]
